Columns and labels:
[1] = tested on: Human hepatic cancer cells (HuH-7); assay: Antitumor effect on hepatic cancer cells, HuH-7 (in vivo); details: SCID mice bearing HuH-7 tumor, 10 mg/kg/day orally, once daily, 9 consecutive days; ratio of relative tumor volume treatment/control
Description: Human hepatic cancer cells (HuH-7) were transplanted in SCID mice (6 females/group) and the inhibitory effect of the invention on their growth was examined. In the study, 0.2 mL of a cell suspension adjusted to contain 2.5×10^7 cells/mL was injected subcutaneously in the right axilla to prepare tumor bearing mice. When the tumor diameter became 5 mm or more, the animals were allocated to groups based on the tumor volume. The test compound was administered orally as a suspension in 5% gum arabic, once daily, for 9 consecutive days. The control group received 5% gum arabic. Tumor volumes were measured on the following day of the last administration. The relative tumor volume was determined by calculating the ratio of the tumor volume on the following day of the last administration to that at group allocation. The ratio of the relative tumor volume in the treatment group to that in the control group (T/C %) was calculated as the index for the effect. Relative tumor volume=Tumor volume on the following day of the last administration/Tumor volume at group allocation. T/C %=(Mean relative tumor volume in the treatment group/Mean relative tumor volume in the control group)×100.

[2] = tested on: human pancreatic cancer cells (HPAC); assay: Antiproliferative effect on cancer cells (in vitro), sulforhodamine B method, HPAC; type: cell-based; details: Homo sapiens, 120 h, 5 days incubation with test compound
Description: (§1) Growth inhibition of human hepatic cancer cells (HuH-7) was determined by the sulforhodamine B method based on the method of Skehan P. et al. (J Natl Cancer Inst. 1990 Jul. 4; 82(13): 1107-12). In the study, HuH-7 cells were seeded on DMEM medium containing 10% fetal bovine serum in a 96-well microplate. After 24-hour incubation at 37° C. in the presence of 5% carbon dioxide, the test compound was added and the cells were incubated for another 5 days. After incubation, a trichloroacetic acid solution was added to yield the final concentration of 10% and the cells were left to stand at 4° C. for 1 hour to fix. Then, the cells were washed with water to remove the medium and trichloroacetic acid and dried in the air. The dried cells were stored at 4° C. until they were stained with sulforhodamine B. To each well, 1% acetic acid solution containing 0.4% sulforhodamine B was added and left to stand for 20 to 30 minutes at room temperature. After discarding the supernatant, each well was washed with 1% acetic acid solution, and 10 mM Tris ([…]) solution was added while stirring to elute the dye taken into the cells. Then, the optical density was determined at the measurement wavelength of 492 nm and the reference wavelength of 690 nm, and the difference was calculated. The cell growth activity in each well was defined as the value determined by subtracting the OD in the control well not containing cells (the difference in absorbance between 492 nm and 690 nm) from that in the test well.
(§2) The 50% inhibitory concentration (IC50 (nM)) of the test compound was determined by comparing the cell growth activity in the well containing the test compound with that of the control not containing the test compound.
The growth inhibition on human pancreatic cancer cells (HPAC) was also determined by the above method using HPAC instead of HuH-7 and RPMI 1640 medium containing 10% fetal bovine serum instead of the DMEM medium containing 10% fetal bovine serum.

[3] = tested on: LI90 cells, a human hepatic stellate cell line; assay: Inhibitory effect on collagen synthesis (in vitro); type: cell-based; details: in the presence of recombinant human TGF-β1, 3H-proline labelled collagen in supernatant
Procedure, shortened: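 Cells serum-starved 3 days in 0.1% FBS MEM, then exposed to test compound with […] recombinant human TGF-β1 for 16 h at 37 °C. Collagen labelled with ³H-proline for 24 h in medium with 0.25 mM ascorbate; acid-soluble supernatant radioactivity measured and IC50 (nM) derived versus untreated cells.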

[4] = tested on: human hepatic cancer cells (HuH-7); assay: Antiproliferative effect on cancer cells (in vitro), sulforhodamine B method, HuH-7; type: cell-based; details: Homo sapiens, 120 h, HuH-7 cells, 5 days incubation with test compound
Description: as §1, §2

[5] = tested on: human chronic myelocytic leukemia cells (KU812); assay: Antiproliferative effect on cancer cells (in vitro), WST-8 assay, KU812; type: cell-based; details: Homo sapiens, 120 h, 5 days incubation with test compound
Description: The growth inhibition on human chronic myelocytic leukemia cells (KU812) was determined by a WST-8 assay according to the method of Singh A K, et al. (Cancer Lett. 1996 Oct. 1; 107(1): 109-15.). In this method, KU812 cells were seeded in RPMI 1640 medium containing 10% fetal bovine serum in a 96-well microplate and incubated at 37° C. for 24 hours in the presence of 5% carbon dioxide. Then, the test compound was added and the cells were incubated for another 5 days. After incubation, 15 μL of 5 mM WST-8 (2-(2-methoxy-4-nitrophenyl)-3-(4-nitrophenyl)-5-(2,4-disulfenyl)-2H-tetrazolium, monosodium salt) was added and the cells were incubated for 2 hours. After the 2-hour incubation, 15 μL of 1% SDS (sodium dodecyl sulfate) was added and the optical density was determined at the measurement wavelength of 450 nm and the reference wavelength of 630 nm, and the difference was calculated. The cell growth activity in each well was defined as the value determined by subtracting the OD in the control well not containing cells (the difference in absorbance between 492 nm and 690 nm) from that in the test well.
as §2

STAT3 = assay: Inhibitory effect on IL-6-induced STAT3 phosphorylation in human myeloma cells (in vitro); type: cell-based; details: U266B1 human myeloma cells, IL-6 1 ng/mL, pSTAT3 (Y705) by flow cytometry

CN(C(=O)c1ccc(C(F)(F)F)cc1)c1ccc(Oc2ccc3c(c2)cc(C(=O)N2CCN(Cc4ccc(OC(F)F)cc4)CC2)n3C)nc1.O=C(O)/C=C\C(=O)O [Example 401, N-(6-{2-[4-(4-Difluoromethoxybenzyl)piperazine-1-carbonyl]-1-methyl-1H-indol-5-yloxy}pyridin-3-yl)-N-methyl-4-trifluoromethyl-benzamide maleate]
T/C % [1]: <50%
IC50 [2]: < 0.07 µM
IC50 [3]: < 0.01 µM
IC50 [4]: < 0.01 µM
IC50 [5]: < 0.002 µM
IC50 (STAT3): < 0.01 µM
melting point: 146 to 147 °C
